Where two headings read alike, the source gives them in different places. *1 amine or outer side, *2 acyl side, *3 side chain or, on linkers, in order; H or OH if unused. Where a SMILES comes first, the peptide text is derived from it. Bridges are numbered along the chain shown (N, C = ends). [ ]: non-standard residue; d: D form. The star is where a group is joined. X25 = O=C([C@H](Cc1ccc(C(F)(F)F)cc1)N(CCC(F)(F)F)[*:1])[*:2]; hPhe(3-Cl-4-CF3) = N[C@@H](CCc1ccc(C(F)(F)F)c(Cl)c1)C(=O)O; NPrPhe(4-CF3) = CCCN[C@@H](Cc1ccc(C(F)(F)F)cc1)C(=O)O; X21 = Cc1ccc(C[C@@H](C(=O)[*:2])N(CC2CC2)[*:1])cc1; NMeGly(cPent) = CN[C@H](C(=O)O)C1CCCC1; Pro(4,4-F2) = O=C(O)[C@@H]1CC(F)(F)CN1; NMeD = CN[C@@H](CC(=O)O)C(=O)O; NMeL = CN[C@@H](CC(C)C)C(=O)O; X12 = N#CCN(CC(=O)[*:2])[*:1]; Morpholide = C1CN(*)CCO1; NMeA = CN[C@@H](C)C(=O)O; Ac5c = NC1(C(=O)O)CCCC1; Aze = O=C(O)[C@@H]1CCN1; Ac4c = NC1(C(=O)O)CCC1; NEtG = CCNCC(=O)O; Sar = CNCC(=O)O
Legend:
[1] = molecular target: GDP-bound HRAS wild-type protein (Homo sapiens, UniProt P01112); assay: Binding to HRAS by surface plasmon resonance (SPR), Single Cycle Kinetics; conditions: SPR, GDP-bound HRAS wild-type protein vs GDP-bound KRAS wild-type protein
[2] = molecular target: GDP-bound KRAS wild-type protein (Homo sapiens, UniProt P01116); assay: Binding to KRAS by surface plasmon resonance (SPR), Single Cycle Kinetics; conditions: GDP-bound KRAS wild-type protein, read-out: KRAS KD
[3] = molecular target: GDP-bound NRAS wild-type protein (Homo sapiens, UniProt P01111); assay: Binding to NRAS by surface plasmon resonance (SPR), Single Cycle Kinetics; conditions: SPR, GDP-bound NRAS wild-type protein vs GDP-bound KRAS wild-type protein
[4] = SPR Single Cycle Kinetics, 1:1 binding model

Sequence of GDP-bound HRAS wild-type protein (P01112 whole entry): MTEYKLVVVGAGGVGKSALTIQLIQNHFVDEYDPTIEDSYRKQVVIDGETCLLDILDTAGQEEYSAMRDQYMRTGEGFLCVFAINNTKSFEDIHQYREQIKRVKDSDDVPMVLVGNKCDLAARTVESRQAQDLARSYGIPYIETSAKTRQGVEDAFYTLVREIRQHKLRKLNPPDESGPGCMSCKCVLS
Sequence of GDP-bound NRAS wild-type protein (P01111 whole entry): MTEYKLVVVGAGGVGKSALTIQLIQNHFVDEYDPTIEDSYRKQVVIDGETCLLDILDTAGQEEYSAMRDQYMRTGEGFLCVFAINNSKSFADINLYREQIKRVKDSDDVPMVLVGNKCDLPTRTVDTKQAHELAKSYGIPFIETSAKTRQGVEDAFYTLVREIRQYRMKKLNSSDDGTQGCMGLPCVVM
Sequence of GDP-bound KRAS wild-type protein (P01116 whole entry): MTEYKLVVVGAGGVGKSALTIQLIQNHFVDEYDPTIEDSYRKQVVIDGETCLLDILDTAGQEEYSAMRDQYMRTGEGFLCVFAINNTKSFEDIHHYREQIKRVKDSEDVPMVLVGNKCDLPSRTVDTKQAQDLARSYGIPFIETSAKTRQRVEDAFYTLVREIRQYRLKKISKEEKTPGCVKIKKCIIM

Kd ([2]; SPR, Single Cycle Kinetics) [nM] | Kd [2, 4] [nM] | SMILES | HRAS/KRAS (ratio of KD value for HRAS to KD value for KRAS) [1] | NRAS/KRAS (ratio of KD value for NRAS to KD value for KRAS) [3] | also measured
0.4 | – | C=CCCC[C@H]1C(=O)N[C@@H]([C@@H](C)CC)C(=O)N(C)CC(=O)N(C)[C@H]2CCCCN(C2=O)[C@@H](Cc2ccc(C(F)(F)F)cc2)C(=O)N(C)CC(=O)N[C@@H](CCc2cc(F)c(C(F)(F)F)c(F)c2)C(=O)N2C[C@H](OCC)C[C@H]2C(=O)N[C@](C)(CC=C)C(=O)N(C)[C@@H](C2CCCC2)C(=O)N(C)[C@H](C(=O)N2CCOCC2)CC(=O)N1C [PP0876] | C (A compound having a KD ratio of 0.1 or more and less than 3 is denoted as C) | C (A compound having a KD ratio of 0.1 or more and less than 3 is denoted as C) | –
0.31 | – | CCCN(C)C(=O)[C@@H]1CC(=O)N(C)[C@@H](CC(F)F)C(=O)N[C@@H]([C@@H](C)CC)C(=O)N(C)CC(=O)N(C)[C@H]2C/C=C\CCN(C2=O)[C@@H](Cc2ccc(C(F)(F)F)cc2)C(=O)N(C)CC(=O)N[C@@H](CCc2cc(F)c(C(F)(F)F)c(F)c2)C(=O)N2C[C@@H](C)C[C@H]2C(=O)NC2(CC(C)(C)C2)C(=O)N(C)[C@@H](C2CCCC2)C(=O)N1C [PP2040] | A (a compound having 10 or more and less than 20 is denoted as A) | A (a compound having 10 or more and less than 20 is denoted as A) | –
– | 0.055 | CCO[C@@H]1C[C@H]2C(=O)NC3(CCC3)C(=O)N(C)[C@@H](C3CCCC3)C(=O)N(C)[C@H](C(=O)N3CCOCC3)CC(=O)N(C)[C@@H](CC3CCCCC3)C(=O)N[C@@H]([C@@H](C)CC)C(=O)N(C)CC(=O)N(C)[C@H]3CCCCN(C3=O)[C@@H](Cc3ccc(C(F)(F)F)cc3)C(=O)N(C)CC(=O)N[C@@H](CCc3cc(F)c(C(F)(F)F)c(F)c3)C(=O)N2C1 [PP0716] | – | – | HRAS/KRAS (ratio of KD value with respect to HRAS to KD value with respect to KRAS) [1]: B (a compound having 3 or more and less than 10 is denoted as B); NRAS/KRAS (ratio of KD value with respect to NRAS to KD value with respect to KRAS) [3]: C (A compound having a KD ratio of 0.1 or more and less than 3 is denoted as C)
0.99 | – | CCO[C@@H]1C[C@H]2C(=O)NC3(CCC3)C(=O)N(C)[C@@H](C3CCCC3)C(=O)N(CCC3CCCC3)[C@H](C(=O)N(C)C)CC(=O)N(C)[C@@H](CC)C(=O)N[C@@H]([C@@H](C)CC)C(=O)N(C)CC(=O)N(C)[C@H]3C/C=C\CCN(C3=O)[C@@H](Cc3ccc(C(F)(F)F)cc3)C(=O)N(C)CC(=O)N[C@@H](CCc3cc(F)c(C(F)(F)F)c(F)c3)C(=O)N2C1 [PP0982] | A (a compound having 10 or more and less than 20 is denoted as A) | AA (a compound having 20 or more is denoted as AA) | –
0.37 | – | CCO[C@@H]1C[C@H]2C(=O)NC3(CC(C)(C)C3)C(=O)N(C)[C@@H](C(CC)CC)C(=O)N(C)[C@H](C(=O)N(C)C)CC(=O)N(C)[C@@H](CC3CC3)C(=O)N[C@@H]([C@@H](C)CC)C(=O)N(C)CC(=O)N(C)[C@H]3C/C=C\CCN(C3=O)[C@@H](Cc3ccc(C)cc3)C(=O)N(C)CC(=O)N[C@@H](CCc3cc(F)c(C(F)(F)F)c(F)c3)C(=O)N2C1 [PP2137] | A (a compound having 10 or more and less than 20 is denoted as A) | A (a compound having 10 or more and less than 20 is denoted as A) | –
– | 0.21 | CC[C@H](C)[C@@H]1NC(=O)[C@H](CC(C)C)N(C)C(=O)C[C@@H](C(=O)N2CCOCC2)N(C)C(=O)[C@H](C2CCCC2)N(C)C(=O)C2(CCCC2)NC(=O)[C@@H]2CCCN2C(=O)[C@H](CCc2ccc(C(F)(F)F)c(Cl)c2)NC(=O)CN(C)C(=O)[C@H](Cc2ccc(C)cc2)N(CC2CC2)C(=O)[C@@H]2CCN2C(=O)[C@H](C)N(C)C1=O [PP0057] ([NMeL]I[NMeA][Aze][X21][Sar][hPhe(3-Cl-4-CF3)]P[Ac5c][NMeGly(cPent)][NMeD]-Morpholide; lactam N-11) | B (a compound having 3 or more and less than 10 is denoted as B) | C (A compound having a KD ratio of 0.1 or more and less than 3 is denoted as C) | –
– | – | CCO[C@@H]1C[C@H]2C(=O)NC3(CCC3)C(=O)N(C)[C@@H](C3CCCC3)C(=O)N(C)[C@H](C(=O)N(C)CCOC)CC(=O)N(C)[C@@H](CC3CC3)C(=O)N[C@@H]([C@@H](C)CC)C(=O)N(C)CC(=O)N(C)[C@H]3C/C=C\CCN(C3=O)[C@@H](Cc3ccc(C(F)(F)F)cc3)C(=O)N(C)CC(=O)N[C@@H](CCc3ccc(C(F)(F)F)c(OC)c3)C(=O)N2C1 [PP1327] | – | – | HRAS/KRAS (ratio of KD value for HRAS to KD value for KRAS) ([1]; KD ratio class): A (a compound having 10 or more and less than 20 is denoted as A); Kd ([2]; SPR, Single Cycle Kinetics, 1:1 binding model): 0.11 nM; NRAS/KRAS (ratio of KD value for NRAS to KD value for KRAS) ([3]; KD ratio class): A (a compound having 10 or more and less than 20 is denoted as A)
0.37 | – | CC[C@H](C)[C@@H]1NC(=O)[C@H](COC)N(C)C(=O)C[C@@H](C(=O)N2CCOCC2)N(C)C(=O)[C@H](C2CCCC2)N(C)C(=O)C2(CCCC2)NC(=O)[C@@H]2CCCN2C(=O)[C@H](CCc2ccc(C(F)(F)F)c(Cl)c2)NC(=O)CN(C)C(=O)[C@H](Cc2ccc(F)cc2)N2CCCCC[C@@H](C2=O)N(C)C(=O)CN(C)C1=O [PP0960] | B (a compound having 3 or more and less than 10 is denoted as B) | B (a compound having 3 or more and less than 10 is denoted as B) | –
– | 0.099 | CCCN1C(=O)CN(C)C(=O)CN(C)C(=O)[C@H]([C@@H](C)CC)NC(=O)[C@H](CC(C)C)N(C)C(=O)C[C@@H](C(=O)N2CCOCC2)N(C)C(=O)[C@H](C2CCCC2)N(C)C(=O)C2(CCCC2)NC(=O)[C@@H]2CCCN2C(=O)[C@H](CCc2ccc(C(F)(F)F)c(Cl)c2)NC(=O)CN(C)C(=O)[C@@H]1Cc1ccc(C(F)(F)F)cc1 [PP0060] ([NMeL]I[Sar][Sar][NPrPhe(4-CF3)][Sar][hPhe(3-Cl-4-CF3)]P[Ac5c][NMeGly(cPent)][NMeD]-Morpholide; lactam N-11) | B (a compound having 3 or more and less than 10 is denoted as B) | B (a compound having 3 or more and less than 10 is denoted as B) | –
– | 1.5 | CCCN1C(=O)CN(C)C(=O)CN(CC)C(=O)[C@H]([C@@H](C)CC)NC(=O)[C@H](CC(C)C)N(C)C(=O)C[C@@H](C(=O)N(C)C)NC(=O)[C@H](C2CCCC2)N(C)C(=O)C2(CCC2)NC(=O)[C@@H]2CC(F)(F)CN2C(=O)[C@H](CCc2ccc(C(F)(F)F)c(Cl)c2)NC(=O)CN(C)C(=O)[C@@H]1Cc1ccc(C(F)(F)F)cc1 [PP0370] ([NMeL]I[NEtG][Sar][NPrPhe(4-CF3)][Sar][hPhe(3-Cl-4-CF3)][Pro(4,4-F2)][Ac4c][NMeGly(cPent)]D-NMe2; lactam N-11) | C (A compound having a KD ratio of 0.1 or more and less than 3 is denoted as C) | B (a compound having 3 or more and less than 10 is denoted as B) | –
– | 0.3 | CCCN1C(=O)[C@@H]2CCN2C(=O)CN(CC#N)C(=O)[C@H]([C@@H](C)CC)NC(=O)[C@H](CC(C)C)N(C)C(=O)C[C@@H](C(=O)N2CCOCC2)N(C)C(=O)[C@H](C2CCCC2)N(C)C(=O)C2(CCCC2)NC(=O)[C@@H]2CCCN2C(=O)[C@H](CCc2ccc(C(F)(F)F)c(Cl)c2)NC(=O)CN(C)C(=O)[C@@H]1Cc1ccc(C(F)(F)F)cc1 [PP0275] ([NMeL]I[X12][Aze][NPrPhe(4-CF3)][Sar][hPhe(3-Cl-4-CF3)]P[Ac5c][NMeGly(cPent)][NMeD]-Morpholide; lactam N-11) | C (A compound having a KD ratio of 0.1 or more and less than 3 is denoted as C) | C (A compound having a KD ratio of 0.1 or more and less than 3 is denoted as C) | –
0.5 | – | CCC[C@H]1C(=O)N[C@@H]([C@@H](C)CC)C(=O)N(C)CC(=O)N(C)[C@H]2C/C=C\CCN(C2=O)[C@@H](Cc2ccc(C(F)(F)F)cc2)C(=O)N(C)CC(=O)N[C@@H](CCc2ccc(C(F)(F)F)c(Cl)c2)C(=O)N2CC3(CC3)C[C@H]2C(=O)NC2(CC(C)(C)C2)C(=O)N(C)[C@@H]([C@@H](C)CC)C(=O)N(C)[C@H](C(=O)N(C)C)CC(=O)N1C [PP2983] | A (a compound having 10 or more and less than 20 is denoted as A) | AA (a compound having 20 or more is denoted as AA) | –
– | 1.3 | CCO[C@@H]1C[C@H]2C(=O)NC3(CC=CC3)C(=O)N(C)[C@@H](C3CCCC3)C(=O)N(C)[C@H](C(=O)N3CCOCC3)CC(=O)N(C)[C@@H](CC(C)C)C(=O)N[C@@H]([C@@H](C)CC)C(=O)N(C)CC(=O)N(C)[C@H]3CCCCCN(C3=O)[C@@H](Cc3ccc(C(F)(F)F)cc3)C(=O)N(C)CC(=O)N[C@@H](CCc3cc(F)c(C(F)(F)F)c(F)c3)C(=O)N2C1 [PP0727] | – | – | HRAS/KRAS (ratio of KD value with respect to HRAS to KD value with respect to KRAS) [1]: B (a compound having 3 or more and less than 10 is denoted as B); NRAS/KRAS (ratio of KD value with respect to NRAS to KD value with respect to KRAS) [3]: B (a compound having 3 or more and less than 10 is denoted as B)
– | 0.19 | CC[C@H](C)[C@@H]1NC(=O)[C@H](CC(C)C)N(C)C(=O)C[C@@H](C(=O)N2CCOCC2)N(C)C(=O)[C@H](C2CCCC2)N(C)C(=O)C2(CCCC2)NC(=O)[C@@H]2CCCN2C(=O)[C@H](CCc2ccc(C(F)(F)F)c(Cl)c2)NC(=O)CN(C)C(=O)[C@H](Cc2ccc(C(F)(F)F)cc2)N(CCC(F)(F)F)C(=O)[C@@H]2CCN2C(=O)[C@H](C)N(C)C1=O [PP0117] ([NMeL]I[NMeA][Aze][X25][Sar][hPhe(3-Cl-4-CF3)]P[Ac5c][NMeGly(cPent)][NMeD]-Morpholide; lactam N-11) | B (a compound having 3 or more and less than 10 is denoted as B) | B (a compound having 3 or more and less than 10 is denoted as B) | –

Source: patent US20240158446A1, “CYCLIC COMPOUND HAVING SELECTIVE INHIBITORY ACTION ON KRAS OVER HRAS AND NRAS” (CHUGAI SEIYAKU KABUSHIKI KAISHA, priority 2021, published 2024)
